Reference: patent publication US11492335B2, “Aryl or heteroaryl triazolone derivatives or salts thereof, or pharmaceutical compositions comprising the same” (YUHAN CORPORATION, priority 2018, dated 2022)
Counter-ions that a name gives are not always drawn. Like-named read-outs stand apart in the source and are kept apart here.

Columns and labels:
Type in all cases: biochemical
recombinant human VAP-1 = target: T1, recombinant human VAP-1 (Homo sapiens, UniProt Q16853); assay: Activity on recombinant human VAP-1, Amplex Red HRP-coupled hydrogen peroxide assay, benzylamine substrate; conditions: recombinant human VAP-1, benzylamine substrate, read-out: Inhibitory Activity (IC50, nM) human VAP-1
T1 construct: purchased R&D systems
T1 sequence (Q16853 1-763): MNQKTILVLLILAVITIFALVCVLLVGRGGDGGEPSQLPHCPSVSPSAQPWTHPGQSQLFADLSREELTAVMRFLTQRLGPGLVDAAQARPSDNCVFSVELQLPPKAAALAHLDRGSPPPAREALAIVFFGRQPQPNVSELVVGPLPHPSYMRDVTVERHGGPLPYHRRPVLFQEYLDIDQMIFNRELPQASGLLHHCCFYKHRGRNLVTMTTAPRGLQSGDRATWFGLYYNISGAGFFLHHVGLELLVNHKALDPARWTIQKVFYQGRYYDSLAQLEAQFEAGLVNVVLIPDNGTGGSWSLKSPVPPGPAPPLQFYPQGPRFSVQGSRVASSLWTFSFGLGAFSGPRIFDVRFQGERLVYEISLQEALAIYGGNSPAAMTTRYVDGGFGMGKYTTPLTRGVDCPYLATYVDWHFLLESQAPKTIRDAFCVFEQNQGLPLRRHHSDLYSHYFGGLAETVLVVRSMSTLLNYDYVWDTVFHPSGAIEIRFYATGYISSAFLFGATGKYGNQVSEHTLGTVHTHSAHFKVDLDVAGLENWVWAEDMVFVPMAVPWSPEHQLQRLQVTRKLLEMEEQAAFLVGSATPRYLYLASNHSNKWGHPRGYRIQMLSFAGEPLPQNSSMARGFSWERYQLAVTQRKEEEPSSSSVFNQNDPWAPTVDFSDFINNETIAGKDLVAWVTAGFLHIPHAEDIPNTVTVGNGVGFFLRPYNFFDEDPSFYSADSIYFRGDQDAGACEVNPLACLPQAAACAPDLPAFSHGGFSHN
In short: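 8-point 1:3 dilutions, final DMSO <1%; 30 min enzyme preincubation, 37 °C, pH 7.4 phosphate. Start: 1 mM benzylamine + 200 uM Amplex Red + 1 U/mL HRP. Read ex544/em590 over 1-2 h; % rate decrease vs DMSO control, 4-parameter logistic IC50.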

[1] = target: T2, recombinant human MAO-A (monoamine oxidase-A) (Homo sapiens, UniProt P21397); assay: Activity on recombinant human MAO-A, Amplex Red method, 0.5 mM tyramine substrate; conditions: read-out: Inhibitory Activity (IC50, nM) MAO-A
T2 construct: purchased Sigma-Aldrich
T2 sequence (P21397 1-527): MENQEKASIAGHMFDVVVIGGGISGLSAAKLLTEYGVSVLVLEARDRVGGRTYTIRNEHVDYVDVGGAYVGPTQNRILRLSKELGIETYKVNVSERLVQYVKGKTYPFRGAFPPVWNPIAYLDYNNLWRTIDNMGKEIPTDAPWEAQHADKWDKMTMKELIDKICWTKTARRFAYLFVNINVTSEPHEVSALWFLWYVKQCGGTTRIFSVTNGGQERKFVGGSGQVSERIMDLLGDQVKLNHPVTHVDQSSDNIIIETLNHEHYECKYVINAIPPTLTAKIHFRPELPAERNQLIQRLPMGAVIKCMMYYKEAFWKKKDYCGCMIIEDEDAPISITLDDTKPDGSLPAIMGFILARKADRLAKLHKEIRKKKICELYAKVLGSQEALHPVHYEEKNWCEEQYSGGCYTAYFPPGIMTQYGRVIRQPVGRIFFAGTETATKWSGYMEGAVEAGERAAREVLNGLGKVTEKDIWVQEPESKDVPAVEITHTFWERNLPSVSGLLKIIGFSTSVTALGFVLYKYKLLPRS
In short: (§1)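 HRP-coupled Amplex Red H2O2 assay, 50 mM sodium phosphate pH 7.4; compounds (8-point 1:3 series, final DMSO <1%) preincubated with enzyme 30 min at 37° C, then 200 uM Amplex Red, 1 U/mL HRP and substrate (MAO-A 0.5 mM tyramine; MAO-B 1 mM benzylamine) added. Resorufin fluorescence (ex 544/em 590 nm) read over 1-2 h; IC50 from four-parameter logistic fit.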

[2] = target: T3, recombinant human MAO-B (monoamine oxidase-B) (Homo sapiens, UniProt P27338); assay: Activity on recombinant human MAO-B, Amplex Red method, 1 mM benzylamine substrate; conditions: read-out: Inhibitory Activity (IC50, nM) MAO-B
T3 construct: purchased Sigma-Aldrich
T3 sequence (P27338 1-520): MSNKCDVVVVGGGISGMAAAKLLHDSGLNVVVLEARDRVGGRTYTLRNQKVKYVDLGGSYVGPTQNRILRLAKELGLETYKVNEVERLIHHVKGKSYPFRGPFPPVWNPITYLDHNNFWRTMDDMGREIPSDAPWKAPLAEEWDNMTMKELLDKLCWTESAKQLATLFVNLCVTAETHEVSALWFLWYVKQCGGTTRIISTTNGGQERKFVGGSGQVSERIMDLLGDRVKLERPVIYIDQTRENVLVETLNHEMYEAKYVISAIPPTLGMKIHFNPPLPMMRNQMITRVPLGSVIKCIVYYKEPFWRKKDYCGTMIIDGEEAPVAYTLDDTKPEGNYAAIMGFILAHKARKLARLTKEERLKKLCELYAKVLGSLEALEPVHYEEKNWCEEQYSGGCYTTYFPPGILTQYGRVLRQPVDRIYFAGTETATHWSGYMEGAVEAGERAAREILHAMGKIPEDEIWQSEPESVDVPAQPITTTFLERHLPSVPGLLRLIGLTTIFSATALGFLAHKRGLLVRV
In short: as §1

[3] = target: T4, recombinant human DAO (diamine oxidase) (Homo sapiens, UniProt P19801); assay: Activity on recombinant human DAO, Amplex Red method, 1 mM putrescine substrate; conditions: recombinant human DAO, read-out: Inhibitory Activity (IC50, nM) DAO
T4 construct: purchased R&D systems
T4 sequence (P19801 20-751): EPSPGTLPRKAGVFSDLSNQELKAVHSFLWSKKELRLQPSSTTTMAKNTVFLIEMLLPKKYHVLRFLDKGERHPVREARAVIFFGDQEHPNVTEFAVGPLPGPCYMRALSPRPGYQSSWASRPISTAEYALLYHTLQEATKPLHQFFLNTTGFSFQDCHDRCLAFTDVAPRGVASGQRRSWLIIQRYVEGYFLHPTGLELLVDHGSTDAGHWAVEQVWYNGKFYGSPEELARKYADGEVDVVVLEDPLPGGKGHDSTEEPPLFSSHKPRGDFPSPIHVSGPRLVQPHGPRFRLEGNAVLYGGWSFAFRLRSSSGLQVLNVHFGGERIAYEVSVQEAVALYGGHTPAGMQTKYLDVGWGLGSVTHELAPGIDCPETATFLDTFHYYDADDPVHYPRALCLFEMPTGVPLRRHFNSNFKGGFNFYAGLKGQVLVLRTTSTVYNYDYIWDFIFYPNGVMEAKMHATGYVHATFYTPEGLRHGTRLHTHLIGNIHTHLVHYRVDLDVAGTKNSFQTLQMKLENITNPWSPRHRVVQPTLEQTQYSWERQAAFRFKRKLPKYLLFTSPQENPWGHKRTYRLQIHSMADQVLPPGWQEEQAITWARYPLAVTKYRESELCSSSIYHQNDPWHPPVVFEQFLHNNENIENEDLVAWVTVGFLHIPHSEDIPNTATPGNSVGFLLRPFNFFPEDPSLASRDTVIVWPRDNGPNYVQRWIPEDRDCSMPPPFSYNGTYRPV
In short: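 Inhibition of recombinant human DAO (diamine oxidase, R&D systems) was assessed with the Amplex Red Hydrogen Peroxide Assay Kit. Hydrogen peroxide produced from 1 mM putrescine was detected through an HRP-coupled reaction that converts Amplex Red into fluorescent resorufin, read at 544 nm excitation and 590 nm emission. IC50 values came from four-parameter logistic fits in GraphPad Prism.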

[4] = 1 mM putrescine, * = between 10 and 100 nM, ** = between 300 and 1000 nM

| SMILES | IC50 (recombinant human VAP-1) [nM] | IC50 ([1]; 0.5 mM tyramine substrate) [nM] | IC50 ([2]; 1 mM benzylamine substrate) [nM] | IC50 ([3]; 1 mM putrescine substrate) [nM] | IC50 (recombinant human VAP-1; 30 min preincubation at 37° C.) [nM] | IC50 ([1]; 0.5 mM tyramine) [nM] | IC50 ([2]; 1 mM benzylamine) [nM] | IC50 [3, 4] [nM] |
| --- | --- | --- | --- | --- | --- | --- | --- | --- |
| CN1CCOc2cc(-c3cccc(-n4cnn(C/C(=C/F)CN)c4=O)n3)ccc21 [Example 202, 2-[(2E)-2-(aminomethyl)-3-fluoroprop-2-en-1-yl]-4-[6-(4-methyl-3,4-dihydro-2H-1,4-benzoxazin-7-yl)pyridin-2-yl]-2,4-dihydro-3H-1,2,4-triazol-3-one hydrochloride] | 1 | > 100000 | 1300 | 240 |  |  |  |  |
| CC(=O)Nc1ccc(-c2ccnc(-n3cnn(C/C(=C/F)CN)c3=O)c2)cc1 [Example 166, N-[4-(2-{1-[(2E)-2-(aminomethyl)-3-fluoroprop-2-en-1-yl]-5-oxo-1,5-dihydro-4H-1,2,4-triazol-4-yl}pyridin-4-yl)phenyl]acetamide] | 0.23 | 20700 | 2420 | < 30 |  |  |  |  |
| NC/C(=C/F)Cn1ncn(-c2ccc(Br)nc2)c1=O [Example 24, 2-[(2Z)-2-(aminomethyl)-3-fluoroprop-2-en-1-yl]-4-(6-bromopyridin-3-yl)-2,4-dihydro-3H-1,2,4-triazol-3-one] |  |  |  |  | 4.6 | 6600 | 17 | 26 |
| COc1ncc(-c2cccc(-n3cnn(C/C(=C/F)CN)c3=O)c2)cc1C(F)(F)F [Example 87, 2-[(2E)-2-(aminomethyl)-3-fluoroprop-2-en-1-yl]-4-{3-[6-methoxy-5-(trifluoromethyl)pyridin-3-yl]phenyl}-2,4-dihydro-3H-1,2,4-triazol-3-one hydrochloride] |  |  |  |  | 1 | > 100000 | 22 | < 100 |
| CC(C)c1nc(-c2ccc(-c3cccc(-n4cnn(C/C(=C/F)CN)c4=O)c3)cc2)no1 [Example 64, 2-[(2E)-2-(aminomethyl)-3-fluoroprop-2-en-1-yl]-4-{4′-[5-(propan-2-yl)-1,2,4-oxadiazol-3-yl]biphenyl-3-yl}-2,4-dihydro-3H-1,2,4-triazol-3-one hydrochloride] |  |  |  |  | 3.2 | 6030 | > 10000 | < 30 |
| NC/C(=C\F)Cn1ncn(-c2cccc(-c3ccc(-c4noc(C5CC5)n4)cc3)n2)c1=O [Example 178, 2-[(2E)-2-(aminomethyl)-3-fluoroprop-2-en-1-yl]-4-{6-[4-(5-cyclopropyl-1,2,4-oxadiazol-3-yl)phenyl]pyridin-2-yl}-2,4-dihydro-3H-1,2,4-triazol-3-one hydrochloride] | 1.4 | 74000 | 5490 | < 10 |  |  |  |  |
| NC/C(=C/F)Cn1ncn(-c2cccc(-c3ccc4c(c3)OCCO4)c2)c1=O [Example 94, 2-[(2Z)-2-(aminomethyl)-3-fluoroprop-2-en-1-yl]-4-[3-(2,3-dihydro-1,4-benzodioxin-6-yl)phenyl]-2,4-dihydro-3H-1,2,4-triazol-3-one hydrochloride] |  |  |  |  | 2 | > 100000 | 2630 | 120 |

Continued by falling IC50 (recombinant human VAP-1; 30 min preincubation at 37° C.), values first:

| IC50 (recombinant human VAP-1) [nM] | IC50 ([1]; 0.5 mM tyramine substrate) [nM] | IC50 ([2]; 1 mM benzylamine substrate) [nM] | IC50 ([3]; 1 mM putrescine substrate) [nM] | IC50 (recombinant human VAP-1; 30 min preincubation at 37° C.) [nM] | IC50 ([1]; 0.5 mM tyramine) [nM] | IC50 ([2]; 1 mM benzylamine) [nM] | IC50 [3, 4] [nM] | SMILES |
| --- | --- | --- | --- | --- | --- | --- | --- | --- |
|  |  |  |  | 0.93 | > 100000 | > 10000 | < 100 | NC/C(=C\F)Cn1ncn(-c2cccc(-c3ccc(N4CCOCC4)c(F)c3)c2)c1=O [Example 75, 2-[(2E)-2-(aminomethyl)-3-fluoroprop-2-en-1-yl]-4-[3′-fluoro-4′-(morpholin-4-yl)biphenyl-3-yl]-2,4-dihydro-3H-1,2,4-triazol-3-one hydrochloride] |
|  |  |  |  | 0.9 | 58000 | 300 | 34 | NC/C(=C\F)Cn1ncn(-c2cccc(-c3cc4ccccc4s3)c2)c1=O [Example 101, 2-[(2E)-2-(aminomethyl)-3-fluoroprop-2-en-1-yl]-4-[3-(1-benzothiophen-2-yl)phenyl]-2,4-dihydro-3H-1,2,4-triazol-3-one hydrochloride] |
|  |  |  |  | 0.87 | > 100000 | 133 | < 100 | Cc1cc(-c2ccc3cn[nH]c3c2)ncc1-n1cnn(C/C(=C/F)CN)c1=O [Example 126, 2-[(2E)-2-(aminomethyl)-3-fluoroprop-2-en-1-yl]-4-[6-(1H-indazol-6-yl)-4-methylpyridin-3-yl]-2,4-dihydro-3H-1,2,4-triazol-3-one] |
|  |  |  |  | 0.45 | > 100000 | 10 | < 1 | CS(=O)(=O)c1ccc(-c2ccc(-n3cnn(C/C(=C\F)CN)c3=O)nc2)cc1 [Example 129, 2-[(2Z)-2-(aminomethyl)-3-fluoroprop-2-en-1-yl]-4-{5-[4-(methylsulfonyl)phenyl]pyridin-2-yl}-2,4-dihydro-3H-1,2,4-triazol-3-one hydrochloride] |
